Measured values reported in patent US20250009698A1, “NERVONIC ACID-BASED COMPOSITIONS AND METHODS” (REGENTS OF THE UNIVERSITY OF MINNESOTA, priority 2023, published 2025).
“Also recorded” adds a separate entry of the source.

What was measured:
[1] = preliminary animal studies; cited from earlier work
[2] = tested on: ALD double knockout mice; experiment: In vivo mouse study, four-week NA or EA diet, fatty acids in plasma and tissues; settings: for C26:0 in tissues, 3% NA group versus 3% EA group: comparison of 3% NA and 3% EA treatment groups
Protocol: An in vivo ALD double knockout mice model was used to evaluate the effect of NA or EA on various fatty acid concentrations in the tissue of the mice see Example). Mice were fed a diet containing 0.6% NA, 3% NA, or 3% EA for four weeks (FIG. 20). Blood samples taken every week and tissues harvested after four weeks of treatment were analyzed for fatty acid concentration.
Double ALD knockout mice were grown to eight weeks. At eight week the mice were split into four treatment groups. Three of the treatment groups received nervonic acid (NA, 0.6% or 3%) or erucic acid (EA, 3%) through their daily diet. Specifically, mice were fed with rodent chow (TEKLAD Rodent Chow available from Inotiv in West Lafayette, IN) mixed with the desired amount of NA or EA. Food was available continuously and new food was added every other day. Daily food intake was weighed and mouse weighed every week. Blood samples were taken weekly for four weeks. Following four weeks, the mice were sacrificed, and their tissues analyzed for fatty acid content. GCMS was used for lipid fatty acid content analysis and LC-MS/MS was used to analyze Lyso-PC.

[3] = tested on: ALD cells (cALD and AMN cells); experiment: Basal energy production measured as ATP content in ALD cells; type: cell-based, human
Protocol: (§1) In vitro and in vivo experiments were done to evaluate the ability of nervonic acid to modulate ALD associated biochemistry in various ALD phenotypes including childhood cerebral ALD (cALD) and adrenomyeloneuropathy (AMN). Nervonic acid (NA) was compared to the erucic acid (EA), the active ingredient in Lorenzo's oil. […] Additionally, the potential of NA and EA to alter the basal energy production measured as ATP content in ALD cells was assessed (Terluk et al., Neurotherapeutics 2022 April; 19(3):1007-1017. doi: 10.1007/s13311-022-01226-7). Following a five-day treatment with NA, cellular ATP content was increased in cALD cells (FIG. 6).

[4] = molecular target: T1, ELOVL1 (Homo sapiens, UniProt Q9BW60); settings: earlier studies; cited from earlier work
T1 sequence (Q9BW60 1-279): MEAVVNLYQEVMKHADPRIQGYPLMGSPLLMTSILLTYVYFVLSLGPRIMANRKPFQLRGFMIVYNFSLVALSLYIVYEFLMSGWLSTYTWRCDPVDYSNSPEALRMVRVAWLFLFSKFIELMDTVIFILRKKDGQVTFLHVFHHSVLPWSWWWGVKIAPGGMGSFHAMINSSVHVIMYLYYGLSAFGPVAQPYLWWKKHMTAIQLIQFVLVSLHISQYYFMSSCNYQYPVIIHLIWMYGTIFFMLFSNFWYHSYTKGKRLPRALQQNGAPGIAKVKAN

[5] = tested on: AMN and cALD cells; experiment: Fatty acid levels in ALD cells treated with NA or EA; type: cell-based, human; settings: 0, 5, 20, 50 μM
Protocol: as §1

[6] = tested on: ALD gene-knockout mice (KO; ABCD1-); experiment: Pharmacokinetics of NA study, single oral dose; type: in vivo, mouse
Protocol: (§2) Pharmacokinetic studies were conducted to determine the key pharmacokinetic parameters of NA in an ALD mouse model and assess alterations in plasma C26:0 levels following single-dose NA administration. The pharmacokinetic parameters of NA were defined for the first time in rodents (FIG. 35-39). […] The concentrations of NA in the brain (FIG. 37) and in the liver (FIG. 38) were determined.
(§3) Pharmacokinetic studies were conducted using 12-week-old male ALD gene-knockout mice (KO; ABCD1-) following a single oral administration of 10 mg of NA. Blood samples were collected from the submandibular vein prior to dosing and at 0.25, 0.5, 1, 2, 6, 18, 24, 30, 48, 72, and 168 hours post-administration. The concentrations of NA in plasma and tissues were analyzed at the Kennedy Krieger Institute using GC/MS. Pharmacokinetic parameters including systemic clearance (CL/F), volumes of distribution (V/F), elimination half-life (ti/2), and the area under the curve (AUC) were estimated using PHOENIX (Certara USA, Radnor, PA) with non-compartmental analysis (NCA).

[7] = Pharmacokinetics of NA study, single oral dose; type: in vivo, mouse; settings: male, ALD gene-knockout (ABCD1-), mouse, in vivo; single oral 10 mg; plasma; NCA
Protocol: as §2, §3

[8] = tested on: AMN cells (GM17819); experiment: Seahorse cell mitochondrial stress test (MST), oxygen consumption rate; type: cell-based, human; settings: 5, 20, 50 μM NA, 24 hours
Protocol: Mitochondrial function was assessed using a cell mitochondrial stress test (MST; see Seahorse study in the Example). As depicted in FIG. 8, in this experiment, inhibitors of various electron transport chain components (oligomycin; FCCP/carbonyl cyanide 4-(trifluoromethoxy)phenylhydrazone; rotenone and antimycin A) are sequentially incubated with cells and the oxygen consumption rate (OCR) measured following each incubation to evaluate various individual parameters of respiration. The OCR of cells that were treated with NA was compared with cells not treated with NA. FIG. 13A-13, FIG. 14A-B, FIG. 15A-B, and FIG. 16A-B are plots showing the results of the respiration test.
Mitochondrial function was assessed on AMN cells (GM17819) using the Cell Mito Stress Test (CMST) in an XFe96 Extracellular Flux Analyzer (Agilent Technologies, Inc., Santa Clara, CA). Cells (1.25×10^4 cells/well) were seeded overnight on Cell-Tak coated XFe96 microplate and then treated with NA (5 μM, 20 μM, or 50 μM) for 24 hours. For the CMST measurements, the culture medium was replaced with XF DMEM medium supplemented with glutamine 4 mM, sodium pyruvate 1 mM, and glucose 24.9 mM, pH 7.4 and 37° C. Oxygen consumption rate (OCR) was detected at baseline and after the following injections: 1) oligomycin (3 μM), 2) carbonyl cyanide 4-(trifluoromethoxy)phenylhydrazone/FCCP (2 μM), and 3) rotenone (1 μM) plus antimycin A (1 μM). This protocol allowed the analysis of the following parameters: basal respiration, ATP production, proton leak, maximal respiration, spare respiratory capacity, non-mito respiration, coupling efficiency percent, and spare respiratory capacity percent. OCR data were normalized by the number of cells determined by using CyQUANT NF Cell Proliferation Assay Kit (Thermo Fisher Scientific, Inc., Waltham, MA) and a fluorescence microplate reader. OCR results were generated by SEAHORSE WAVE PRO (Agilent Technologies, Inc., Santa Clara, CA) and analyzed with the SEAHORSE Analytics software (Agilent Technologies, Inc., Santa Clara, CA).

[9] = tested on: Human dermal AMN fibroblasts (GM17819); experiment: Imaging study of oxidative stress (CELLROX, MITOSOX); type: cell-based; settings: five days, compared to vehicle and control
Protocol: A second set of in vitro experiments were conducted to more thoroughly understand the mechanism of action of nervonic acid in the mitochondria of ALD cells. AMN patient derived fibroblasts were treated with various concentrations of NA (5 μM, 20 μM, and 50 μM in ethanol) and evaluated for mitochondrial oxidative stress by evaluating reactive oxygen species (see Example) and mitochondrial respiration (see Example). FIG. 9 and FIG. 11 show images of the NA AMN treated cells stained for reactive oxygen species (green) or mitochondrial superoxide (red) and nuclei (blue; see Imaging Study in Example). FIG. 10 and FIG. 12 show bar graphs quantifying the reactive oxygen species fluorescence of FIG. 9 and the mitochondrial superoxide fluorescence of FIG. 11.
Human dermal fibroblasts (GM17819) were seeded on chamber slides with a density of 12,500 cells per well and incubated at 37° C. At ˜80% confluence, cells were treated with ethanol (vehicle, <0.1%) and NA (5 μM, 20 μM, or 50 μM) for five days. Untreated AMN fibroblasts were considered the control group. […] Cell localization and fluorescence visualization were then completed using a fluorescence microscope (BZ-X810; Keyence, Osaka, Japan). […]

[10] = tested on: AMN cells; experiment: Long chain fatty acid (LCFA) oxidation stress test with UK5099, BPTES, etomoxir; type: cell-based, human; settings: 20 μM NA, 24 h, with inhibitors UK, BP, ETO alone or combined
From the text: A long chain fatty acid (LCFA) oxidation stress test (SEAHORSE XF assay; Agilent Technologies, Inc., Santa Clara, CA) was used to assess how NA affects mitochondrial respiration when various metabolic pathways of mitochondria are inhibited. Specific inhibitors to block glucose, fatty acid or glutamine pathways were used alone or in combination to understand the substrate specific effects of NA. In this assay the mitochondrial stress test (MST) is repeated with one or more inhibitors of glycolysis, the TCA cycle, electron transport, and oxidative phosphorylation pathways are present. Etomoxir (Eto) is used to inhibit carnitine palmitoyl transferase 1a (CPT1a), an enzyme important in the mechanism for beta oxidation (degradation) of long chain fatty acids. UK5099 (UK) is used to inhibit transport of glucose and/or pyruvate by targeting the mitochondrial pyruvate carrier (MPC). BPTES (BP) is used to inhibit glutaminase GLS1, an enzyme that converts glutamine into glutamate, a substrate for further oxidation in the TCA cycle. AMN cells were incubated with one or more of the inhibitors with or without 20 μM NA and run through the mitochondrial stress test. The results are shown in FIG. 17, FIG. 18, and FIG. 19.

[11] = cited from earlier work
[12] = tested on: ALD patient-derived fibroblasts; settings: earlier studies; cited from earlier work

CCCCCCCC/C=C\CCCCCCCCCCCC(=O)O [EA, erucic acid, reference compound]
cardiotoxicity [1]: associated with cardiotoxicity | C22:1 amount in brain ([2]; 3% EA diet, four weeks): did not show an elevation | C22:1 (EA) levels in liver, kidney, heart, and adrenal ([2]; compared to control group, 3% EA diet, four weeks): significant elevation | C26:0 in tissues, 3% NA group versus 3% EA group [2]: no significant difference; also recorded: comparable | C22:1 (EA) level in plasma ([2]; only after 4-week treatment with 3% EA): significant increase | cellular ATP content (energy production) at 20 μM ([3]; 20 μM, compared to vehicle-treated cells, five-day treatment): did not show a marked increase

CCCCCCCC/C=C\CCCCCCCCCCCCCC(=O)O [NA, Nervonic acid]
inhibition of ELOVL1 [4]: competitively inhibit | amount of C26:0 fatty acid [5]: dose-dependent effect on decreasing | CL/F ([6]; single oral 10 mg, plasma, NCA): 8.509 mL/h | Ke ([6]; single oral 10 mg, plasma, NCA): 0.01113 h⁻¹ | V/F ([6]; single oral 10 mg, plasma, NCA): 764.7 mL | plasma C26:0 LPC ([6]; single oral dose 10 mg NA): does not significantly affect | plasma C26:0 levels ([6]; single oral dose 10 mg NA): does not significantly affect | AUC [7]: 2330 µg·h/mL | Cmax [7]: 32700 ng/mL | Tmax [7]: 2 h | half-life [7]: 62.3 h | ATP production [8]: increase | basal respiration [8]: increase | maximal respiration [8]: increase | spare respiratory capacity [8]: increase | plasma C26:0 Lyso-phosphatidylcholine (C26:0 LPC) ([2]; after 4-week treatment, dose-dependent manner): significantly reduced | C24:1 levels in liver, kidney, heart, and adrenal gland ([2]; compared to control group, NA diet, four weeks): significant elevation | C26:0 in tissues, 3% NA group versus 3% EA group [2]: no significant difference; also recorded: comparable | plasma C26:0 ([2]; diet 0.6% or 3% NA): dose dependent decrease | NA level in plasma at steady state ([2]; following four-week treatment): approximately 70 pig/mL | C26:1 levels in plasma ([2]; intake of NA): significant increase | C26:0 levels in tissues ([2]; liver, kidney, brain, heart, adrenal, four weeks): decrease | mitochondrial superoxide (MITOSOX fluorescence) ([9]; 5 μM or 20 μM): decrease | reactive oxygen species (CELLROX fluorescence) ([9]; 5 μM, 20 μM, or 50 μM): decrease | acute response [10]: No significant change | basal respiration [10]: No significant change | maximal respiration [10]: No significant change | solubility in dimethyl sulfoxide ([11]; dimethyl sulfoxide): approximately 20 mg/ml | solubility in dimethylformamide ([11]; dimethylformamide): approximately 20 mg/ml | solubility in ethanol ([11]; ethanol): approximately 10 mg/ml | cellular ATP content ([3]; cALD cells, five-day treatment): increased | cellular ATP content at other concentrations ([3]; concentrations other than 20 μM, cALD and AMN cells): a trend was observed | accumulation of C26:0 [12]: biochemically reverse
